According to publication PMC11089204 (Frontiers in Pharmacology, 2024):
Counter-ions that a name gives are not always drawn.

Experiments:
[1] = tested on: human intestinal microsomes (HIM); experiment: Glucuronidation with human intestinal microsomes; assay type: in vitro ADME; conditions: HIM
Protocol: Corning UltraPool human liver microsomes (HLM) 150 (20 mg/mL), human intestinal microsomes (HIM) pool (10 mg/mL) as well as recombinant human CYP enzymes (with P450 oxidoreductase, OR) including CYP1A2+OR (0.5 nmol), CYP2B6+OR (0.5 nmol), CYP2C8+OR (1.0 nmol), CYP2C9*1+OR (1 nmol), CYP2C19+OR (0.5 nmol), CYP2D6*1+OR (0.5 nmol), CYP2E1+OR + cytochrome b5 (1 nmol), CYP3A4+OR + cytochrome b5 (0.5 nmol), MAO-A (5 mg/mL), MAO-B (5 mg/mL), and UGT1A10 (5 mg/mL) were purchased from Corning Life Sciences B.V (Amsterdam, Netherlands). All microsomes and recombinant enzyme solutions were aliquoted and stored at −80 °C until further use. Co-factors including NADPH regenerating system solution A (25 mM NADP+, 66 mM glucose-6-phosphate, and 66 mM MgCl2 in water), NADPH regenerating system solution B (40 U/mL glucose-6-phosphate dehydrogenase in 5 mM sodium citrate), UGT reaction mix solution A (25 mM uridine 5′-diphospho-glucuronic acid in water), and UGT reaction mix solution B (250 mM Tris-HCl, 40 mM MgCl2, and 0.125 mg/mL alamethicin in water) were also obtained from Corning Life Sciences B.V.
The assay described in section 2.5.1 was adjusted to suit the glucuronidation system. […] HLM were diluted as described in section 2.5.1, while HIM or UGT1A10 enzymes were diluted 1:40 (end concentration […] and 0.125 mg/mL, respectively) in the reaction mix. Sampling time points were adjusted to 0, 15, 30, 60, 90, 120, 180, and 240 min.

[2] = biological target: T1, recombinant human UGT1A10 (Homo sapiens, UniProt Q9HAW8); experiment: Glucuronidation with recombinant UGT1A10; assay type: in vitro ADME
T1 construct: purchased Corning Life Sciences B.V
T1 sequence (Q9HAW8 26-530): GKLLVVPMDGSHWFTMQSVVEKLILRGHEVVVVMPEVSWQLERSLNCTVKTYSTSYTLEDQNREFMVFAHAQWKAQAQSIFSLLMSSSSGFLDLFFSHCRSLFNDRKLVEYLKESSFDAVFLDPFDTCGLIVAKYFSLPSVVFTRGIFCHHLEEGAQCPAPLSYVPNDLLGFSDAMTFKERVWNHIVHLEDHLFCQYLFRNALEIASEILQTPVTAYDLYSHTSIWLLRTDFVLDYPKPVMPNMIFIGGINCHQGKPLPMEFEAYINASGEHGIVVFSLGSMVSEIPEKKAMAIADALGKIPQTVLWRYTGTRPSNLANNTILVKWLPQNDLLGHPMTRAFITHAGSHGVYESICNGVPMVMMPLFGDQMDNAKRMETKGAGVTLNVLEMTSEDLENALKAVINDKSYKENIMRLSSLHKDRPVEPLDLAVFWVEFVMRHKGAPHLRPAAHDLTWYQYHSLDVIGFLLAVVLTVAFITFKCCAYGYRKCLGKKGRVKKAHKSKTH
Protocol: (§1) Corning UltraPool human liver microsomes (HLM) 150 (20 mg/mL), human intestinal microsomes (HIM) pool (10 mg/mL) as well as recombinant human CYP enzymes (with P450 oxidoreductase, OR) including CYP1A2+OR (0.5 nmol), CYP2B6+OR (0.5 nmol), CYP2C8+OR (1.0 nmol), CYP2C9*1+OR (1 nmol), CYP2C19+OR (0.5 nmol), CYP2D6*1+OR (0.5 nmol), CYP2E1+OR + cytochrome b5 (1 nmol), CYP3A4+OR + cytochrome b5 (0.5 nmol), MAO-A (5 mg/mL), MAO-B (5 mg/mL), and UGT1A10 (5 mg/mL) were purchased from Corning Life Sciences B.V (Amsterdam, Netherlands). All microsomes and recombinant enzyme solutions were aliquoted and stored at −80 °C until further use.
The assay described in section 2.5.1 was adjusted to suit the glucuronidation system.

recombinant MAO-A = biological target: T2, recombinant MAO-A (Homo sapiens, UniProt P21397); experiment: Incubation with recombinant MAO-A enzymes; assay type: in vitro ADME
T2 construct: purchased Corning Life Sciences B.V
T2 sequence (P21397 1-527): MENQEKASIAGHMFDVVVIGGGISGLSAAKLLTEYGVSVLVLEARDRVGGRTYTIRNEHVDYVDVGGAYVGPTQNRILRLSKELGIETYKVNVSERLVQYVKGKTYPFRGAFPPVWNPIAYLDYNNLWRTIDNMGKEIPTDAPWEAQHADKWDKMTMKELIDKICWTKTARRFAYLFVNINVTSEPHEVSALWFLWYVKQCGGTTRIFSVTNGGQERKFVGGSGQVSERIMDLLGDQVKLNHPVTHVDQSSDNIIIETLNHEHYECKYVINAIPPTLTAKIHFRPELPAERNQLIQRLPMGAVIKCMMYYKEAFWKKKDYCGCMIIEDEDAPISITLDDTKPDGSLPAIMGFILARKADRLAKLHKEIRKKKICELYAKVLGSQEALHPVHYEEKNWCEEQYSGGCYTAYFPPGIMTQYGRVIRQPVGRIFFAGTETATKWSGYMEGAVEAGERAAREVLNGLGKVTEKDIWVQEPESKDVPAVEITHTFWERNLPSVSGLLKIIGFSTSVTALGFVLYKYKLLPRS
Protocol: as §1
(§2) The MAO inhibition assay was based on the assay described in section 2.5.1 and performed identically if not otherwise stated.

recombinant MAO-B = biological target: T3, recombinant MAO-B (Homo sapiens, UniProt P27338); experiment: Incubation with recombinant MAO-B enzymes; assay type: in vitro ADME
T3 construct: purchased Corning Life Sciences B.V
T3 sequence (P27338 1-520): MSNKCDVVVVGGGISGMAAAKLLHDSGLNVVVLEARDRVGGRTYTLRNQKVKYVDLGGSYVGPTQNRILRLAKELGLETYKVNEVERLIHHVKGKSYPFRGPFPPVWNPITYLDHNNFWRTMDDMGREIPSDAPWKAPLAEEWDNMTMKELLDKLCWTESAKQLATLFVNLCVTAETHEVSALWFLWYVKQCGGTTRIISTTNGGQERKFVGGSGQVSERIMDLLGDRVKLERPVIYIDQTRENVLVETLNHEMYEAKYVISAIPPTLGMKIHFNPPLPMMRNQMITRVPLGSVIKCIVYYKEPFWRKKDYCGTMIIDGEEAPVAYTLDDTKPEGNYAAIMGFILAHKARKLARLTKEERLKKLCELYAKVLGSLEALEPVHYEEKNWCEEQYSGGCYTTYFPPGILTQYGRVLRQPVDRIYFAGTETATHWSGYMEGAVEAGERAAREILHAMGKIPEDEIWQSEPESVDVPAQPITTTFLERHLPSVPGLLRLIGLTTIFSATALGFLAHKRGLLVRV
Protocol: as §1, §2

[3] = biological target: T4, MAO-A in human liver microsomes (HLM) (Homo sapiens, UniProt P21397); experiment: Monoamine oxidase A inhibition in human liver microsomes; assay type: in vitro ADME; conditions: 5 μM kynuramine, t = 240 min
T4 construct: tissue Corning Life Sciences B.V; host or cells: pooled human liver microsomes
T4 sequence (P21397 1-527): T2 sequence (P21397 1-527)

[4] = Pharmacokinetics and metabolites in mouse plasma after oral psilocybin; assay type: in vivo, C57BL/6J mice; conditions: for half-life / Cmax / Tmax: male, C57BL/6J, po; for half-life: mouse, plasma, read-out: elimination half-life t1/2 (mean ± SD) (converted); for Cmax: read-out: Cmax (mean ± SD); for Tmax: read-out: tmax (mean ± SD)
Protocol: C57BL/6J adult male mice (Janvier, Le Genest-Saint-Isle, France) were maintained in littermate pairs in standard cages (containing sawdust, a sleeping chamber, tissue paper, and a wood stick) with water and pellet food available ad libitium. The colony room was on a reversed light-dark cycle (dark phase 07:00 to 19:00) with temperature at 22°C and humidity at 50–60%. A total of 10 mice were dosed orally with either 3 mg/kg bodyweight psilocybin (n = 5) or saline solution (n = 5). Dosing and blood sampling were conducted between 09:00 and 13:00. The mouse was placed in a plastic restrainer with the tail protruding through a hole in the end of the tube. The tail was immersed in warm water for 1 min for vasodilation and then a small incision was made on the lateral tail surface near the distal tip. 50 μL of blood was massaged gently into an EDTA-coated capillary blood tube (Mircovette, Sarstedt, Nümbrecht, Germany). The first (baseline) blood sample was collected directly before compound administration via oral gavage and the mouse was then returned to the home cage. Further blood samples were collected at 15, 30, 60, and 120 min post-treatment. Each sample was drawn from the same incision site, with mice maintained in the home cage in the intervening periods. The blood samples were stored on ice and centrifuged for 10 min at 780 × g and 4°C. Subsequently, the plasma was transferred into cryotubes (Protein LoBind, Eppendorf) and stored at −80 °C until analysis. All procedures were conducted under a permit for animal experimentation (ZH038/2022) issued by the Veterinary Office Zurich in accordance with the Animal Protection Act (1978) of Switzerland. The use of psilocybin was authorized by the Federal Office of Public Health (FOPH).
Pharmacokinetic parameters were calculated using Phoenix WinNonlin software (version 8.1.0, Certara, Princeton, USA). The elimination half-life (t1/2, min) was assessed as t1/2 = ln(2)/λ, while the elimination constant was calculated by linear regression in the terminal elimination phase. The maximal plasma concentration (Cmax, ng/mL) and the time to reach this concentration (tmax, h) were direct read-outs of the graphical plots.

[5] = Metabolites in human plasma after oral psilocybin (reanalysed study samples); conditions: 30 mg psilocybin p.o., n = 5
[6] = ref Holze et al., 2022a, cited from earlier work
[7] = 1,000 nM DMT, rec. MAO-A, t = 240 min
[8] = 1,000 nM DMT, rec. MAO-B, t = 240 min
[9] = 3 mg/kg, mouse plasma, 3 mg/kg psilocybin p.o., n = 5
[10] = mouse plasma, 3 mg/kg psilocybin p.o., n = 5

O=C1Nc2c(O)cc(Cl)cc2[C@@](C#CC2CC2)(C(F)(F)F)O1 [OH-efavirenz, 8-hydroxy-efavirenz]
OH-efavirenz glucuronidated ([1]; over 240 min, control condition): 99% | OH-efavirenz peak area ([1]; t = 0): 45,300 ± 5,766 counts | OH-efavirenz peak area ([1]; t = 240 min): 470 ± 394 counts | OH-efavirenz glucuronidated ([2]; rec. UGT1A10, over 240 min, control condition): 98% | OH-efavirenz peak area ([2]; rec. UGT1A10, t = 0): 41,700 ± 10,936 counts | OH-efavirenz peak area ([2]; rec. UGT1A10, t = 240 min): 1,007 ± 155 counts

NCCC(=O)c1ccccc1N [kynuramine, kynuramine dihydrobromide]
kynuramine signal (recombinant MAO-A; rec. MAO-A, t = 0 min): 135,200 ± 23,816 counts | kynuramine signal (recombinant MAO-A; rec. MAO-A, t = 300 min): 48,503 ± 12,251 counts | kynuramine signal (recombinant MAO-B; rec. MAO-B, t = 0 min): 82,853 ± 11,336 counts | kynuramine signal (recombinant MAO-B; rec. MAO-B, t = 240 min): 9,533 ± 8,311 counts

O=C(O)Cc1c[nH]c2ccccc12 [IAA, indole-3-acetic acid]
IAA concentration formed from DMT (recombinant MAO-A; [7]): 30.3 ± 4.2 nM | IAA concentration formed from DMT (recombinant MAO-B; [8]): 11.5 ± 4.5 nM

Oc1ccnc2ccccc12 [4-HQ, 4-hydroxyquinoline]
4-HQ concentration formed from kynuramine ([3]; HLM with clorgyline): 347 ± 67 nM | 4-HQ concentration formed from kynuramine ([3]; HLM): 1,974 ± 302 nM | 4-HQ concentration formed from kynuramine (recombinant MAO-A; 5 μM kynuramine, rec. MAO-A, t = 300 min): 2,694 ± 264 nM | 4-HQ concentration formed from kynuramine (recombinant MAO-B; 5 μM kynuramine, rec. MAO-B, t = 240 min): 4,692 ± 891 nM

CN(C)CCc1c[nH]c2cccc(OP(=O)(O)O)c12 [psilocybin]
detection in mouse plasma ([4]; 3 mg/kg psilocybin p.o.): did not detect | detection in human plasma [5]: did not detect

CN(C)CCc1c[nH]c2ccccc12 [DMT, N,N-dimethyltryptamine]
DMT concentration (recombinant MAO-A; 1,000 nM DMT, rec. MAO-A, t = 0 min): 907 ± 31 nM | DMT concentration (recombinant MAO-A; [7]): 110 ± 29 nM | DMT concentration (recombinant MAO-A; rec. MAO-A with clorgyline, t = 0 min): 915 ± 11 nM | DMT concentration (recombinant MAO-A; rec. MAO-A with clorgyline, t = 240 min): 853 ± 69 nM | DMT concentration (recombinant MAO-B; 1,000 nM DMT, rec. MAO-B, t = 0 min): 940 ± 47 nM | DMT concentration (recombinant MAO-B; [8]): 816 ± 56 nM | DMT concentration (recombinant MAO-B; rec. MAO-B with R-deprenyl, t = 0 min): 954 ± 73 nM | DMT concentration (recombinant MAO-B; rec. MAO-B with R-deprenyl, t = 240 min): 1,008 ± 58 nM

O=C(O)Cc1c[nH]c2cccc(OC3O[C@H](C(=O)O)[C@@H](O)[C@H](O)[C@H]3O)c12 (some centres unmarked) [4-HIAA-glucuronide]
half-life [4, 9]: 82.8 ± 16.2 min | Cmax [4, 10]: 30 ± 6.7 ng/mL | Tmax [4, 10]: 27 ± 6.6 min

CN(C)CCc1c[nH]c2cccc(OC3O[C@H](C(=O)O)[C@@H](O)[C@H](O)[C@H]3O)c12 (some centres unmarked) [psilocin-O-glucuronide]
half-life [4, 9]: 58.2 ± 3.6 min | Cmax [4, 10]: 521 ± 57 ng/mL | Tmax [4, 10]: 21 ± 8.4 min | mean Cmax relative to psilocin (higher) ([4]; mouse plasma, 3 mg/kg psilocybin p.o.): 2.6 fold | elimination half-life t1/2 (mean ± SD) ([4]; mouse plasma, 3 mg/kg psilocybin p.o., n = 5, 3 mg/kg): ~60 min | half-life in mice relative to humans (lower) ([4]; mouse versus human): around 4 fold | plasma concentrations of conjugated psilocin relative to free psilocin (higher) ([6]; clinical studies): around 4 fold | fraction of administered psilocybin dose excreted in urine ([6]; humans, oral psilocybin, within 24 h (time not stated for 4-HIAA)): Approximately 20% | half-life in humans ([6]; humans): around 4 h
